Results published in patent publication US9969887B2, “Merocyanine-based compounds, and dyes, kits and contrast medium compositions for labelling biomolecules comprising the same” (SFC CO., LTD., priority 2016, dated 2018).
Entries after “also recorded” stand apart in the source; their conditions may differ.

Legend:
[1] = system: Salmonella typhimurium TA98 strain; assay: Ames test with S9 mixture; settings: for Number of colonies per plate: TA98, S9 mixture
[2] = system: DNA; assay: Absorption and emission spectra and quantum efficiency in the presence of DNA; format: physicochemical
Method: Absorption spectra (λabs), emission spectra (λem) and quantum efficiency measured in the presence of DNA with compounds 1 to 8 and 36 to 39, and commercially available SYBR® safe were measured and are shown in Table 3 below.

[3] = Absorption and emission spectra, molar extinction coefficient and quantum efficiency in solvent; format: physicochemical
Method: Absorption spectra (λabs), emission spectra (λem), molar extinction coefficient (ε) and quantum efficiency of compounds 1 to 8 obtained in Preparation Examples 1 to 4, and commercially available SYBR® safe were measured and shown in Table 1 below.
Absorption spectra (λabs), emission spectra (λem), molar extinction coefficient (ε) and quantum efficiency of Compounds 36 to 39 obtained in Preparation Examples 6 and 7 and commercially available SYBR® safe were measured and shown in Table 2 below.

[4] = system: Hela cells; assay: Cell permeability test; format: cell-based; settings: 1 μM, 37° C., 30 minutes, microscope
Method: Hela cells were cultured in MEM medium containing 10% fetal bovine serum (FBS) and 1% penicillin/streptomycin (10,000 units penicillin and 10,000 μg/mL streptomycin, Invitrogen) under a humidified atmosphere of CO2 at 37° C. Hela cells were washed with medium No. 3, and 1 μM of SYBR® safe and Compound 6 were treated with Hela Cells and cultured at 37° C. for 30 minutes.

[5] = Photobleaching test; format: physicochemical; settings: low concentration
Method: Real-Time PCR was performed in a 20 μL reaction solution containing only 5 μL of fluorescent dyes (Compound 38, SYBR® green I (Invitrogen) or EvaGreen™ (Biotium)) at various concentrations (dilution times). Cycles of 30 seconds at 25° C. and 30 seconds at 25° C. were repeated 60 times. Fluorescence intensity was measured for each cycle (1 minute) to observe photobleaching of fluorescent dyes at various concentrations (dilution times).

[6] = Thermal stability test, absorbance on standing at 95° C. in PCR reaction buffer; format: physicochemical
Method: In order to confirm the stability of the fluorescent dye in the PCR reaction, 20 μL of PCR reaction buffer containing 1 μL of Compound 38 and 1 μL of EvaGreen™ (Biotium), respectively, was prepared. Each PCR reaction buffer was heated to 95° C., and the absorbance which varies with the standing time at 95° C. was measured.

| Structure (SMILES) | Quantum efficiency [2] | λabs [2] | λem [2] | Quantum efficiency ([3]; DMSO) | ε (molar extinction coefficient) ([3]; DMSO) | λabs ([3]; DMSO) | λem ([3]; DMSO) | Quantum efficiency ([3]; buffer) | ε (molar extinction coefficient) ([3]; buffer) | λabs ([3]; buffer) | λem ([3]; buffer) | further results |
| --- | --- | --- | --- | --- | --- | --- | --- | --- | --- | --- | --- | --- |
| CC[n+]1c(-c2ccccc2)c2cc(N)ccc2c2ccc(N)cc21.[Br-] [EtBr, ethidium bromide, reference compound] | – | – | – | – | – | – | – | – | – | – | – | Number of colonies per plate ([1]; 40 μg/plate): 3051 ± 181 |
| O=C(CCCCCN1C=CC2=C3c4sc5ccc(Cl)cc5[n+]4CCC3Oc3cccc1c32)NCCOCCNC(=O)CCCCCN1C=CC2=C3c4sc5ccc(Cl)cc5[n+]4CCC3Oc3cccc1c32 (stereo not shown) [Compound 5] | 0.86 | 517 nm | 537 nm | 0.64 | 73,000 M^−1cm^−1 | 517 nm | 564 nm | 0.05 | 60,000 M^−1cm^−1 | 484 nm | 562 nm | – |
| O=C(CCCCCN1C=CC2=C3c4oc5ccccc5[n+]4CCC3Oc3cccc1c32)NCCCOCCOCCOCCCNC(=O)CCCCCN1C=CC2=C3c4oc5ccccc5[n+]4CCC3Oc3cccc1c32 (stereo not shown) [Compound 39] | 0.70 | 492 nm | 513 nm | 0.70 | 116,000 M^−1cm^−1 | 492 nm | 520 nm | 0.15 | 98,000 M^−1cm^−1 | 459 nm | 523 nm | – |
| O=C(CCCCCN1C=CC2=C3c4sc5ccc(Cl)cc5[n+]4CCC3Oc3cccc1c32)NCCOCCOCCOCCNC(=O)CCCCCN1C=CC2=C3c4sc5ccc(Cl)cc5[n+]4CCC3Oc3cccc1c32 (stereo not shown) [Compound 7] | 0.71 | 517 nm | 538 nm | 0.64 | 83,000 M^−1cm^−1 | 517 nm | 563 nm | 0.06 | 75,000 M^−1cm^−1 | 484 nm | 560 nm | – |
| O=C(CCCCCN1C=CC2=C3c4sc5ccccc5[n+]4CCC3Oc3cccc1c32)NCCOCCNC(=O)CCCCCN1C=CC2=C3c4sc5ccccc5[n+]4CCC3Oc3cccc1c32 (stereo not shown) [Compound 1] | 1.00 | 517 nm | 541 nm | 0.52 | 109,000 M^−1cm^−1 | 517 nm | 567 nm | 0.03 | 92,000 M^−1cm^−1 | 484 nm | 568 nm | – |
| CCC[n+]1ccc(/C=C2\Sc3ccccc3N2C)c2ccccc21 [SYBR ® safe, reference compound] | 0.021 | 503 nm | 535 nm | 0.006 | 77,000 M^−1cm^−1 | 509 nm | – | 0.006 | 57,000 M^−1cm^−1 | 502 nm | – | Number of colonies per plate ([1]; 1.6 μg/plate): 81 ± 7; cell permeability [4]: shows cell permeability |
| O=C(CCCCCN1C=CC2=C3c4sc5ccccc5[n+]4CCC3Oc3cccc1c32)NCCOCCOCCOCCNC(=O)CCCCCN1C=CC2=C3c4sc5ccccc5[n+]4CCC3Oc3cccc1c32 (stereo not shown) [Compound 4] | 0.88 | 517 nm | 539 nm | 0.73 | 95,000 M^−1cm^−1 | 517 nm | 565 nm | 0.03 | 85,000 M^−1cm^−1 | 484 nm | 566 nm | – |
| O=C(CCCCCN1C=CC2=C3c4sc5ccccc5[n+]4CCC3Oc3cccc1c32)NCCOCCOCCNC(=O)CCCCCN1C=CC2=C3c4sc5ccccc5[n+]4CCC3Oc3cccc1c32 (stereo not shown) [Compound 3] | 0.86 | 517 nm | 540 nm | 0.55 | 84,000 M^−1cm^−1 | 517 nm | 565 nm | 0.03 | 66,000 M^−1cm^−1 | 484 nm | 564 nm | – |
| CCCN(CCCN(C)C)c1cc(/C=C2/Sc3ccccc3N2C)c2ccccc2[n+]1-c1ccccc1 [SYBR ® green I] | – | – | – | – | – | – | – | – | – | – | – | half-life (photobleaching) [5]: 5.5 h |
| O=C(CCCCCN1C=CC2=C3c4sc5ccccc5[n+]4CCC3Oc3cccc1c32)NCCCOCCOCCOCCCNC(=O)CCCCCN1C=CC2=C3c4sc5ccccc5[n+]4CCC3Oc3cccc1c32 (stereo not shown) [Compound 2] | 0.93 | 517 nm | 541 nm | 0.88 | 101,000 M^−1cm^−1 | 517 nm | 566 nm | 0.08 | 83,000 M^−1cm^−1 | 484 nm | 565 nm | – |
| O=C(CCCCCN1C=CC2=C3c4oc5ccccc5[n+]4CCC3Oc3cccc1c32)NCCOCCOCCOCCNC(=O)CCCCCN1C=CC2=C3c4oc5ccccc5[n+]4CCC3Oc3cccc1c32 (stereo not shown) [Compound 38] | 0.76 | 492 nm | 512 nm | 0.67 | 110,000 M^−1cm^−1 | 492 nm | 520 nm | 0.17 | 95,000 M^−1cm^−1 | 459 nm | 522 nm | high temperature stability ([6]; 95° C., compared with EvaGreen): greater than EvaGreen™; Absorbance ([6]; standing time 0 hr at 95° C.): 0.127; Absorbance ([6]; standing time 0.5 hr at 95° C.): 0.149; Absorbance ([6]; standing time 1 hr at 95° C.): 0.162; Absorbance ([6]; standing time 2 hr at 95° C.): 0.163; Absorbance ([6]; standing time 3 hr at 95° C.): 0.178 |
| O=C(CCCCCN1C=CC2=C3c4sc5ccc(Cl)cc5[n+]4CCC3Oc3cccc1c32)NCCCOCCOCCOCCCNC(=O)CCCCCN1C=CC2=C3c4sc5ccc(Cl)cc5[n+]4CCC3Oc3cccc1c32 (stereo not shown) [Compound 8] | 0.80 | 517 nm | 538 nm | 0.71 | 89,000 M^−1cm^−1 | 517 nm | 563 nm | 0.04 | 78,000 M^−1cm^−1 | 484 nm | 565 nm | – |
| O=C(CCCCCN1C=CC2=C3c4oc5ccccc5[n+]4CCC3Oc3cccc1c32)NCCOCCOCCNC(=O)CCCCCN1C=CC2=C3c4oc5ccccc5[n+]4CCC3Oc3cccc1c32 (stereo not shown) [Compound 37] | 0.64 | 492 nm | 512 nm | 0.63 | 100,000 M^−1cm^−1 | 492 nm | 520 nm | 0.14 | 85,000 M^−1cm^−1 | 458 nm | 524 nm | – |
| O=C(CCCCCN1C=CC2=C3c4sc5ccc(Cl)cc5[n+]4CCC3Oc3cccc1c32)NCCOCCOCCNC(=O)CCCCCN1C=CC2=C3c4sc5ccc(Cl)cc5[n+]4CCC3Oc3cccc1c32 (stereo not shown) [Compound 6] | 0.73 | 517 nm | 538 nm | 0.62 | 70,000 M^−1cm^−1 | 517 nm | 563 nm | 0.04 | 60,000 M^−1cm^−1 | 484 nm | 564 nm | Number of colonies per plate ([1]; 8 μg/plate): 24 ± 6; Number of colonies per plate ([1]; 40 μg/plate): 57 ± 3; genotoxicity (Ames test), in words ([1]; TA98, S9 metabolic activity): no significant increase in colony counts; also recorded: lower genotoxicity than SYBR® safe |
| O=C(CCCCCN1C=CC2=C3c4oc5ccccc5[n+]4CCC3Oc3cccc1c32)NCCOCCNC(=O)CCCCCN1C=CC2=C3c4oc5ccccc5[n+]4CCC3Oc3cccc1c32 (stereo not shown) [Compound 36] | 0.67 | 492 nm | 511 nm | 0.65 | 95,000 M^−1cm^−1 | 492 nm | 520 nm | 0.12 | 83,000 M^−1cm^−1 | 458 nm | 526 nm | – |
